Test results as given in paper PMC12186298, “Phase 1 clinical trial of eneboparatide, a novel PTH receptor 1 agonist” (Endocrine Connections, 2025).
Peptide text beside a SMILES is read from it.

Tests used:
[1] = test system: healthy subjects; experiment: Safety and tolerability, adverse events, Part A SAD; assay type: in vivo, human
Procedure: Seven sequential cohorts were included in Part A. The first cohort was single-blind and included four subjects, of which three subjects were randomized to receive 5 μg eneboparatide and one subject was randomized to receive placebo. […] Subjects in Part A were admitted to the phase 1 study centre on day 1 and received the study drug at the clinical site on day 1 as a single, subcutaneous abdominal injection in the morning. They were discharged on day 4 and were asked to return for a follow-up (FU) visit on day 5–8.

[2] = test system: healthy subjects; experiment: Antidrug antibodies (ADA) in plasma, Part B; assay type: in vivo, human; conditions: following 14 days of administration
Procedure: Safety and tolerability assessments consisted of adverse events (AEs), clinical laboratory (clinical chemistry, haematology, coagulation, and urinalysis), vital signs (blood pressure, pulse rate, respiratory rate, and temperature), 12-lead ECG (Part B), 24 h continuous cardiac monitoring (telemetry; Part A), body weight, physical examination, injection site reaction, and measurement of antidrug antibodies (ADA) in plasma (Part B).

[3] = test system: animal models of HP; conditions: cited from earlier work

SMILES: CC[C@H](C)[C@H](NC(=O)[C@H](CCC(=O)O)NC(=O)[C@H](C)NC(=O)[C@@H](NC(=O)[C@H](Cc1c[nH]cn1)NC(=O)[C@@H](NC(=O)[C@H](CCC(=O)O)NC(=O)[C@H](C)NC(=O)[C@@H](NC(=O)[C@H](CC(C)C)NC(=O)[C@H](CCCCN)NC(=O)[C@H](Cc1c[nH]cn1)NC(=O)[C@H](CC(C)C)NC(=O)[C@H](Cc1ccccc1)NC(=O)[C@H](C)NC(=O)[C@H](CCCNC(=N)N)NC(=O)[C@H](CCCNC(=N)N)NC(=O)[C@H](CCCNC(=N)N)NC(=O)[C@H](C)NC(=O)[C@H](CC(=O)O)NC(=O)[C@H](CCC(N)=O)NC(=O)[C@@H](NC(=O)[C@H](Cc1c[nH]c2ccccc12)NC(=O)[C@H](CCCCN)NC(=O)[C@H](C)NC(=O)[C@H](CCCNC(=N)N)NC(=O)[C@H](CCC(N)=O)NC(=O)[C@H](Cc1c[nH]cn1)NC(=O)[C@H](CCSC)NC(=O)[C@H](CC(C)C)NC(=O)[C@H](CCC(N)=O)NC(=O)[C@@H](NC(=O)[C@H](CCC(=O)O)NC(=O)[C@H](C)NC(=O)[C@@H](NC(=O)[C@H](C)N)C(C)C)[C@@H](C)CC)[C@@H](C)CC)[C@@H](C)CC)[C@@H](C)CC)[C@@H](C)O)C(=O)O [eneboparatide] (H-AVAEIQLMHQRAKWIQDARRRAFLHKLIAEIHTAEI-OH; N-terminus and C-terminus assumed)
- Injection site erythema, subjects with TEAE ([1]; single sc 10 μg, n = 6): 0
- Injection site pain, subjects with TEAE ([1]; single sc 10 μg, n = 6): 0
- Nausea, subjects with TEAE ([1]; single sc 10 μg, n = 6): 0
- Somnolence, subjects with TEAE ([1]; single sc 10 μg, n = 6): 0
- Catheter site haematoma, subjects with TEAE ([1]; single sc 20 μg, n = 6): 0
- Decreased appetite, subjects with TEAE ([1]; single sc 20 μg, n = 6): 1
- Fatigue, subjects with TEAE ([1]; single sc 20 μg, n = 6): 1
- Headache, subjects with TEAE ([1]; single sc 20 μg, n = 6): 1
- Injection site erythema, subjects with TEAE ([1]; single sc 20 μg, n = 6): 0
- Injection site pain, subjects with TEAE ([1]; single sc 20 μg, n = 6): 1
- Nausea, subjects with TEAE ([1]; single sc 20 μg, n = 6): 0
- Somnolence, subjects with TEAE ([1]; single sc 20 μg, n = 6): 0
- Catheter site haematoma, subjects with TEAE ([1]; single sc 40 μg, n = 6): 0
- Decreased appetite, subjects with TEAE ([1]; single sc 40 μg, n = 6): 0
- Fatigue, subjects with TEAE ([1]; single sc 40 μg, n = 6): 0
- Headache, subjects with TEAE ([1]; single sc 40 μg, n = 6): 0
- Injection site erythema, subjects with TEAE ([1]; single sc 40 μg, n = 6): 0
- Injection site pain, subjects with TEAE ([1]; single sc 40 μg, n = 6): 0
- Nausea, subjects with TEAE ([1]; single sc 40 μg, n = 6): 0
- Somnolence, subjects with TEAE ([1]; single sc 40 μg, n = 6): 0
- Catheter site haematoma, subjects with TEAE ([1]; single sc 60 μg, n = 6): 0
- Decreased appetite, subjects with TEAE ([1]; single sc 60 μg, n = 6): 0
- Fatigue, subjects with TEAE ([1]; single sc 60 μg, n = 6): 1
- Headache, subjects with TEAE ([1]; single sc 60 μg, n = 6): 0
- Injection site erythema, subjects with TEAE ([1]; single sc 60 μg, n = 6): 0
- Injection site pain, subjects with TEAE ([1]; single sc 60 μg, n = 6): 0
- Nausea, subjects with TEAE ([1]; single sc 60 μg, n = 6): 1
- Somnolence, subjects with TEAE ([1]; single sc 60 μg, n = 6): 0
- Catheter site haematoma, subjects with TEAE ([1]; single sc 90 μg, n = 6): 1
- Decreased appetite, subjects with TEAE ([1]; single sc 90 μg, n = 6): 2
- Fatigue, subjects with TEAE ([1]; single sc 90 μg, n = 6): 0
- Headache, subjects with TEAE ([1]; single sc 90 μg, n = 6): 2
- Injection site erythema, subjects with TEAE ([1]; single sc 90 μg, n = 6): 2
- Injection site pain, subjects with TEAE ([1]; single sc 90 μg, n = 6): 2
- Nausea, subjects with TEAE ([1]; single sc 90 μg, n = 6): 3
- Somnolence, subjects with TEAE ([1]; single sc 90 μg, n = 6): 1
- Catheter site haematoma, subjects with TEAE ([1]; single sc 120 μg, n = 6): 1
- Decreased appetite, subjects with TEAE ([1]; single sc 120 μg, n = 6): 3
- Fatigue, subjects with TEAE ([1]; single sc 120 μg, n = 6): 0
- Headache, subjects with TEAE ([1]; single sc 120 μg, n = 6): 3
- Injection site erythema, subjects with TEAE ([1]; single sc 120 μg, n = 6): 0
- Injection site pain, subjects with TEAE ([1]; single sc 120 μg, n = 6): 0
- Nausea, subjects with TEAE ([1]; single sc 120 μg, n = 6): 4
- Somnolence, subjects with TEAE ([1]; single sc 120 μg, n = 6): 4
- Catheter site haematoma, subjects with TEAE ([1]; total eneboparatide, n = 39): 3 (7.7) n (%)
- Decreased appetite, subjects with TEAE ([1]; total eneboparatide, n = 39): 6 (15.4) n (%)
- Fatigue, subjects with TEAE ([1]; total eneboparatide, n = 39): 3 (7.7) n (%)
- Headache, subjects with TEAE ([1]; total eneboparatide, n = 39): 8 (20.5) n (%)
- Injection site erythema, subjects with TEAE ([1]; total eneboparatide, n = 39): 2 (5.1) n (%)
- Injection site pain, subjects with TEAE ([1]; total eneboparatide, n = 39): 3 (7.7) n (%)
- Nausea, subjects with TEAE ([1]; total eneboparatide, n = 39): 8 (20.5) n (%)
- Somnolence, subjects with TEAE ([1]; total eneboparatide, n = 39): 5 (12.8) n (%)
- nausea, subjects ([1]; transient, at 60, 90 and 120 μg): eight
- anti-eneboparatide antibodies [2]: no anti-eneboparatide antibodies detected
- serum calcium, urinary calcium excretion and bone resorption biomarkers [3]: robust and sustained increases in serum calcium without increasing urinary calcium excretion or bone resorption biomarkers
